How the values were obtained:
Cediranib/AZD2171 = compound: COc1cc2c(Oc3ccc4[nH]c(C)cc4c3F)ncnc2cc1OCCCN1CCCC1 [Cediranib/AZD2171]
BVD523 = compound: CC(C)Nc1cc(-c2c[nH]c(C(=O)N[C@H](CO)c3cccc(Cl)c3)c2)c(Cl)cn1 [BVD523]
AZD1775 = compound: C=CCn1c(=O)c2cnc(Nc3ccc(N4CCN(C)CC4)cc3)nc2n1-c1cccc(C(C)(C)O)n1 [AZD1775]
[1] = compound: CC(=O)Nc1cccc(-n2c(=O)n(C3CC3)c(=O)c3c(Nc4ccc(I)cc4F)n(C)c(=O)c(C)c32)c1
THZ1 [2] = compound: T1, CN(C)C/C=C/C(=O)Nc1ccc(C(=O)Nc2cccc(Nc3ncc(Cl)c(-c4c[nH]c5ccccc45)n3)c2)cc1 [THZ1]
THZ531 [3] = compound: T2, CN(C)C/C=C/C(=O)Nc1ccc(C(=O)N2CCC[C@@H](Nc3ncc(Cl)c(-c4c[nH]c5ccccc45)n3)C2)cc1 [THZ531]
[4] = compound: CCCCOc1c(C(=O)c2c(F)cc(C)cc2F)c[nH]c2nncc1-2
Alpelisib/BYL719 = compound: Cc1nc(NC(=O)N2CCC[C@H]2C(N)=O)sc1-c1ccnc(C(C)(C)C(F)(F)F)c1 [Alpelisib/BYL719]
Rucaparib = compound: CNCc1ccc(-c2[nH]c3cc(F)cc4c3c2CCNC4=O)cc1 [Rucaparib]
Saracatinib/AZD0530 = compound: CN1CCN(CCOc2cc(OC3CCOCC3)c3c(Nc4c(Cl)ccc5c4OCO5)ncnc3c2)CC1 [Saracatinib/AZD0530]
[5] = compound: COc1ccc2c(c1)[C@]1(C[C@H]1c1ccc3c(/C=C/c4ccc(CN5C[C@@H](C)O[C@@H](C)C5)cc4)n[nH]c3c1)C(=O)N2
YKL-5-124 = compound: C=CC(=O)Nc1ccc(C(=O)Nc2[nH]nc3c2CN(C(=O)N[C@H](CN(C)C)c2ccccc2)C3(C)C)cc1 [YKL-5-124]; assay: increase in dead-cell fraction, 72 h; higher = more death;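 note: breast cancer cell lines in 384-well plates, stained with Hoechst plus LIVE/DEAD far red dye and imaged, cells above an LDR intensity threshold counted dead, Hoechst-negative corpses included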
[6] = compound: CCc1cnn2c(NCc3ccc[n+]([O-])c3)cc(N3CCCC[C@H]3CCO)nc12; assay: as above
Neratinib/HKI272 = compound: CCOc1cc2ncc(C#N)c(Nc3ccc(OCc4ccccn4)c(Cl)c3)c2cc1NC(=O)/C=C/CN(C)C [Neratinib/HKI272]; assay: as above
THZ1 [7] = compound: T1, THZ1; assay: as above
THZ531 [8] = compound: T2, THZ531; assay: as above
[9] = compound: CC(=O)c1c(C)c2cnc(Nc3ccc(N4CCNCC4)cn3)nc2n(C2CCCC2)c1=O; assay: as above
BSJ-03-123 = compound: CC(=O)c1c(C)c2cnc(Nc3ccc(N4CCN(CCOCCOCCOCCNC(=O)COc5cccc6c5C(=O)N(C5CCC(=O)NC5=O)C6=O)CC4)cn3)nc2n(C2CCCC2)c1=O [BSJ-03-123]; assay: as above
LEE011/Ribociclib = compound: CN(C)C(=O)c1cc2cnc(Nc3ccc(N4CCNCC4)cn3)nc2n1C1CCCC1 [LEE011/Ribociclib]; assay: as above
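Throughout, for GR50, 72 h: breast cancer and non-malignant breast epithelial cell lines, Deep Dye Drop or Dye Drop imaging, nine half-log doses, GR normalized to time-zero plates and DMSO-only controls.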

## MDAMB436
Cediranib/AZD2171
  GR50, 72 h: 3.61 µM
BVD523
  GR50, 72 h: > 10 µM
AZD1775
  GR50, 72 h: 0.175 µM
[1]
  GR50, 72 h: > 1 µM
THZ1 [2]
  GR50, 72 h: 0.135 µM
THZ531 [3]
  GR50, 72 h: 0.19 µM
[4]
  GR50, 72 h: 1.02 µM
Alpelisib/BYL719
  GR50, 72 h: > 10 µM
Rucaparib
  GR50, 72 h: 0.828 µM
Saracatinib/AZD0530
  GR50, 72 h: > 10 µM
[5]
  GR50, 72 h: 0.00237 µM
YKL-5-124; 0.001 µM
  increase in dead-cell fraction: -0.0039
YKL-5-124; 0.003162 µM
  increase in dead-cell fraction: 0.0007
YKL-5-124; 0.01 µM
  increase in dead-cell fraction: 0.019
YKL-5-124; 0.03162 µM
  increase in dead-cell fraction: 0.0153
YKL-5-124; 0.1 µM
  increase in dead-cell fraction: 0.0342
YKL-5-124; 0.3162 µM
  increase in dead-cell fraction: 0.0446
YKL-5-124; 1 µM
  increase in dead-cell fraction: 0.0289
YKL-5-124; 3.162 µM
  increase in dead-cell fraction: 0.027
YKL-5-124; 10 µM
  increase in dead-cell fraction: 0.132
[6]; 0.0001 µM
  increase in dead-cell fraction: -0.0027
[6]; 0.0003162 µM
  increase in dead-cell fraction: -0.0028
[6]; 0.001 µM
  increase in dead-cell fraction: 0.0008
[6]; 0.003162 µM
  increase in dead-cell fraction: 0.0055
[6]; 0.01 µM
  increase in dead-cell fraction: 0.0157
[6]; 0.03162 µM
  increase in dead-cell fraction: 0.0896
[6]; 0.1 µM
  increase in dead-cell fraction: 0.0459
[6]; 0.3162 µM
  increase in dead-cell fraction: 0.0256
[6]; 1 µM
  increase in dead-cell fraction: 0.035
Neratinib/HKI272; 0.0003162 µM
  increase in dead-cell fraction: 0.0013
Neratinib/HKI272; 0.001 µM
  increase in dead-cell fraction: 0.0034
Neratinib/HKI272; 0.003162 µM
  increase in dead-cell fraction: -0.0005
Neratinib/HKI272; 0.01 µM
  increase in dead-cell fraction: 0.0014
Neratinib/HKI272; 0.03162 µM
  increase in dead-cell fraction: 0.0028
Neratinib/HKI272; 0.1 µM
  increase in dead-cell fraction: 0.0066
Neratinib/HKI272; 0.3162 µM
  increase in dead-cell fraction: 0.0167
Neratinib/HKI272; 1 µM
  increase in dead-cell fraction: 0.0223
Neratinib/HKI272; 3.162 µM
  increase in dead-cell fraction: 0.0987
THZ1 [7]; 0.0001 µM
  increase in dead-cell fraction: 0.0026
THZ1 [7]; 0.0003162 µM
  increase in dead-cell fraction: -0.0097
THZ1 [7]; 0.001 µM
  increase in dead-cell fraction: -0.0017
THZ1 [7]; 0.003162 µM
  increase in dead-cell fraction: -0.0001
THZ1 [7]; 0.01 µM
  increase in dead-cell fraction: -0.006
THZ1 [7]; 0.03162 µM
  increase in dead-cell fraction: -0.0078
THZ1 [7]; 0.1 µM
  increase in dead-cell fraction: 0.0476
THZ1 [7]; 0.3162 µM
  increase in dead-cell fraction: 0.0477
THZ1 [7]; 1 µM
  increase in dead-cell fraction: 0.0644
THZ531 [8]; 0.0001 µM
  increase in dead-cell fraction: -0.0141
THZ531 [8]; 0.0003162 µM
  increase in dead-cell fraction: -0.004
THZ531 [8]; 0.001 µM
  increase in dead-cell fraction: 0.0035
THZ531 [8]; 0.003162 µM
  increase in dead-cell fraction: -0.0059
THZ531 [8]; 0.01 µM
  increase in dead-cell fraction: -0.0057
THZ531 [8]; 0.03162 µM
  increase in dead-cell fraction: 0.0007
THZ531 [8]; 0.1 µM
  increase in dead-cell fraction: 0.0043
THZ531 [8]; 0.3162 µM
  increase in dead-cell fraction: 0.0247
THZ531 [8]; 1 µM
  increase in dead-cell fraction: 0.0705
[9]; 0.0003162 µM
  increase in dead-cell fraction: -0.0017
[9]; 0.001 µM
  increase in dead-cell fraction: 0.0024
[9]; 0.003162 µM
  increase in dead-cell fraction: -0.0027
[9]; 0.01 µM
  increase in dead-cell fraction: -0.0025
[9]; 0.03162 µM
  increase in dead-cell fraction: 0
[9]; 0.1 µM
  increase in dead-cell fraction: 0.0005
[9]; 0.3162 µM
  increase in dead-cell fraction: -0.0024
[9]; 1 µM
  increase in dead-cell fraction: -0.0052
[9]; 3.162 µM
  increase in dead-cell fraction: 0.0044
BSJ-03-123; 0.001 µM
  increase in dead-cell fraction: -0.0105
BSJ-03-123; 0.003162 µM
  increase in dead-cell fraction: 0.0015
BSJ-03-123; 0.01 µM
  increase in dead-cell fraction: 0.0056
BSJ-03-123; 0.03162 µM
  increase in dead-cell fraction: -0.0027
BSJ-03-123; 0.1 µM
  increase in dead-cell fraction: 0.0104
BSJ-03-123; 0.3162 µM
  increase in dead-cell fraction: 0.0058
BSJ-03-123; 1 µM
  increase in dead-cell fraction: -0.0041
BSJ-03-123; 3.162 µM
  increase in dead-cell fraction: 0.0011
BSJ-03-123; 10 µM
  increase in dead-cell fraction: 0.0742
LEE011/Ribociclib; 0.001 µM
  increase in dead-cell fraction: -0.0008
LEE011/Ribociclib; 0.003162 µM
  increase in dead-cell fraction: -0.0095
LEE011/Ribociclib; 0.01 µM
  increase in dead-cell fraction: -0.0034
LEE011/Ribociclib; 0.03162 µM
  increase in dead-cell fraction: -0.0032
LEE011/Ribociclib; 0.1 µM
  increase in dead-cell fraction: 0.0007
LEE011/Ribociclib; 0.3162 µM
  increase in dead-cell fraction: -0.0014
LEE011/Ribociclib; 1 µM
  increase in dead-cell fraction: -0.0035
LEE011/Ribociclib; 3.162 µM
  increase in dead-cell fraction: -0.0137
LEE011/Ribociclib; 10 µM
  increase in dead-cell fraction: 0.0049

From the supplement of paper PMC9663587
